Values of other authors as cited in article PMC9885524 (Journal of natural products, 2023).
pEC50: −log10 of the molar value.

System: live SARS-CoV-2
Settings: read-out: half-maximal effective concentrations against live SARS-CoV-2 in vitro; depending on the SARS-CoV-2 variant

Structure (SMILES): Oc1ccc([C@@H]2c3c(O)cc(O)cc3[C@@H]3c4c(cc(O)cc4[C@H]2[C@@H]2c4cc(O)cc5c4[C@@H](c4cc(O)cc(O)c4[C@H]2c2ccc(O)cc2)[C@H](c2ccc(O)cc2)O5)O[C@H]3c2ccc(O)cc2)cc1 [(−)-hopeaphenol, (−)-Hopeaphenol]
- pEC50: 4.64 to 5.12
